Results from patent US6833372B2, “Non-peptide GnRH agents, Pharmaceutical compositions, and methods for their use” (Pfizer, Inc., priority 2002, dated 2004).

What was measured:
[1] = In vitro metabolism: disappearance of parent compound in monkey liver microsomes; format: in vitro ADME; settings: 5 uM compound, 30 minutes 37° C.
Description: (§1) Human, rat, dog, and monkey liver microsomes were isolated by differential centrifugation. Specimens of human liver were obtained from the International Institute for the Advancement of Medicine (Scranton, Pa.). The disappearance of the parent compound was studied in a mixture containing 5 uM compound, 0.5 mg/ml microsomal protein, and 2 mM NADPH in 50 mM K phosphate buffer, pH 7.4. Samples were incubated for 30 minutes at 37° C. The reaction was terminated by the addition of acetonitrile and compounds analyzed by LC-MS as described above.

[2] = In vitro metabolism: disappearance of parent compound in human liver microsomes; format: in vitro ADME; settings: 5 uM compound, 0.5 mg/ml protein, 2 mM NADPH, 30 minutes 37° C.
Description: as §1

[3] = In vitro metabolism: disappearance of parent compound in rat liver microsomes (male, female); format: in vitro ADME; settings: 5 uM compound, 30 minutes 37° C.; for Fem. Rat (FR) % rem. 30′: female rat liver microsomes; for Male Rat (MR) % rem. 30′: male rat liver microsomes
Description: as §1

[4] = In vitro metabolism: disappearance of parent compound in dog liver microsomes; format: in vitro ADME; settings: 5 uM compound, 30 minutes 37° C.
Description: as §1

[5] = target: T1, human GnRH receptors (Homo sapiens, UniProt P30968); assay: Radioligand binding: inhibition of 125I-GnRH-A binding to human GnRH receptor membranes; settings: HEK 293 cell membranes
T1 construct: expressed in transfected cells; host or cells: HEK 293 cells, stably transfected; membranes
T1 sequence (P30968 1-328): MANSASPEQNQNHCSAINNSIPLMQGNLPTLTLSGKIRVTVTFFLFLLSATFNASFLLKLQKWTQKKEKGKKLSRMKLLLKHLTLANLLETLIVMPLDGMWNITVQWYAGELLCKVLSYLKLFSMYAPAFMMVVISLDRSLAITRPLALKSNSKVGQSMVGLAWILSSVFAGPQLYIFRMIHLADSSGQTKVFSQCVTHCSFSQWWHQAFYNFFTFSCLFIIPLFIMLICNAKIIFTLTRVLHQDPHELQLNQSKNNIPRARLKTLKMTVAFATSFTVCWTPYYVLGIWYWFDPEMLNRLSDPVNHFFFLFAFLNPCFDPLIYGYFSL
Procedure, shortened: (§2)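 Membranes from rat pituitaries, or HEK 293 cells stably expressing mouse or human receptor, incubated 1 hour at room temperature with ~0.04-0.06 nM radioligand (HEPES pH 7.4, EDTA, MgCl2, BSA) and competitor at 0.1-10,000 nM. Bound ligand collected by GF/C filtration and counted; Ki derived from IC50 by Cheng-Prusoff.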

[6] = target: T2, rat GnRH receptor (Rattus norvegicus, UniProt P30969); assay: Radioligand binding: inhibition of 125I-GnRH-A binding to rat GnRH receptor (rat pituitary membranes); settings: read-out: Ki (nM), Inhibition Binding of 125I-GnRH-A to GnRH Receptors
T2 construct: or rat pituitaries (Pel Freez Biologicals, Rogers, Ark.) were homogenized; tissue Pel Freez Biologicals; host or cells: rat pituitaries (membrane preparation)
T2 sequence (P30969 1-327): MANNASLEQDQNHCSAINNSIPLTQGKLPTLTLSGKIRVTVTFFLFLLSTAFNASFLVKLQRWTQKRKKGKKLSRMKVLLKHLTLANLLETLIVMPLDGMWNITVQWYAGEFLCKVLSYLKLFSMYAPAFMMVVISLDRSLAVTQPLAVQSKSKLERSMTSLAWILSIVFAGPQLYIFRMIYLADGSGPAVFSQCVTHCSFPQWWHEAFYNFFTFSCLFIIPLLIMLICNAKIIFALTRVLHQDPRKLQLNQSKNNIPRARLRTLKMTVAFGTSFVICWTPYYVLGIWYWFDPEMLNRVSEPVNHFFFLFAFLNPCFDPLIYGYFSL
Procedure, shortened: as §2

SMILES | Monkey % rem. [1] [%] | Human % rem. 30′ [2] [%] | Fem. Rat (FR) % rem. 30′ [3] [%] | Male Rat (MR) % rem. 30′ [3] [%] | Dog % rem. 30′ [4] [%] | Ki [5] [nM] | Ki [6] [nM]
COc1nc(N(CCCN)CCCN)nc(OC)c1NC(=O)c1ccc(Cc2cc3c(cc2C)C(C)(C)OC3(C)C)o1 [Example D16, N-{2-[Bis(3-aminopropyl)amino]-4,6-dimethoxypyrimidin-5-yl}-5-[(1,1,3,3,6-pentamethyl-1,3-dihydro-2-benzofuran-5-yl)methyl]-2-furamide] | 66 | 76 | 95 | 34 | 97 | 6.5 | 1.1
COc1nc(NCCN2CCCCC2)nc(OC)c1NC(=O)c1ccc(Cc2cc3c(cc2C)C(C)(C)OC3(C)C)o1 [Example D6, N-{4,6-Dimethoxy-2-[(2-piperidin-1-ylethyl)amino]pyrimidin-5-yl}-5-[(1,1,3,3,6-pentamethyl-1,3-dihydro-2-benzofuran-5-yl)methyl]-2-furamide] | 8 | 77 | 90 | 74 | 77 | 1.2 | 0.86
COc1nc(NCCN(C)C)nc(OC)c1NC(=O)c1ccc(Cc2cc3c(cc2C)C(C)(C)OC3(C)C)o1 [Example D10, N-(2-{[2-(Dimethylamino)ethyl]amino}-4,6-dimethoxypyrimidin-5-yl)-5-[(1,1,3,3,6-pentamethyl-1,3-dihydro-2-benzofuran-5-yl)methyl]-2-furamide] | 28 | 77 | 79 | 66 | 66 | 7.3 | 2.6
COc1nc(N(CCCN2CCCCC2)CCCN2CCCCC2)nc(OC)c1NC(=O)c1ccc(Cc2cc3c(cc2C)C(C)(C)OC3(C)C)o1 [Example D21, N-{2-[Bis(3-piperidin-1-ylpropyl)amino]-4,6-dimethoxypyrimidin-5-yl}-5-[(1,1,3,3,6-pentamethyl-1,3-dihydro-2-benzofuran-5-yl)methyl]-2-furamide] | 85 | 89 | 89 | 87 | 67 | 3.3 | 1.3

Continued, values first:

Monkey % rem. [1] [%] | Human % rem. 30′ [2] [%] | Fem. Rat (FR) % rem. 30′ [3] [%] | Male Rat (MR) % rem. 30′ [3] [%] | Dog % rem. 30′ [4] [%] | Ki [5] [nM] | Ki [6] [nM] | SMILES
63 | 86 | 90 | 78 | 98 | 3.5 | 0.4 | COc1nc(NCCN2CCNCC2)nc(OC)c1NC(=O)c1ccc(Cc2cc3c(cc2C)C(C)(C)OC3(C)C)o1 [Example D14, N-{4,6-Dimethoxy-2-[(2-piperazin-1-ylethyl)amino]-pyrimidin-5-yl}-5-[(1,1,3,3,6-pentamethyl-1,3-dihydro-2-benzofuran-5-yl)methyl]-2-furamide]
80 | 82 | 97 | 74 | 84 | 0.97 | 0.3 | COc1nc(NCCCN2CCN(CCCN)CC2)nc(OC)c1NC(=O)c1ccc(Cc2cc3c(cc2C)C(C)(C)OC3(C)C)o1 [Example D18, N-[2-({3-[4-(3-Aminopropyl)piperazin-1-yl]propyl}amino)-4,6-dimethoxypyrimidin-5-yl}-5-[(1,1,3,3,6-pentamethyl-1,3-dihydro-2-benzofuran-5-yl)methyl]-2-furamide]
